Assay [1] concerns H. influenzae. The following applies: cited from earlier work.
The subject of assay [2] is Streptococcus pneumoniae 02J1016. Description: Murine peritonitis model, Streptococcus pneumoniae. The assay is classed as in vivo, mouse. The following applies: oral QD.
A further assay deals with S. pyogenes 02C0203. Description: MIC determination, S. pyogenes. The assay is classed as cell-based, Streptococcus pyogenes. The following applies: listed as Clanthromycin. As to the method:
(§1) MIC Determinations. Streptococcus pneumoniae, S. pyogenes, E. faecalis, and H. influenzae MICs were determined using the broth microdilution procedure recommended by the NCCLS. Test trays were incubated at 35C without carbon dioxide. For testing of streptococci, the cation-adjusted Mueller-Hinton broth was supplemented with 2–3% lysed horse blood. For testing H. influenzae, freshly prepared Haemophilus Test Medium broth was used.
(§2) Bacterial Strains. • S. pneumoniae 02J1016, serotype 3, originally isolated from blood culture (strain P 4241) (MLS- and penicillin-susceptible). • S. pyogenes 02C0203, ATCC 12384, group A, type 3 (MLS-susceptible). • E. faecalis 03A1085, vancomycin susceptible clinically derived strain. • H. influenzae 54A1100, (43095 ATCC Fulghum strain) non-serotype B strain originally isolated from otitis media (macrolide and penicillin susceptible). • H. influenzae 54A1218, clinically derived non-serotype B strain (macrolide-susceptible, penicillin-resistant, TEM-1 beta-lactamase).

The subject of assay [3] is Haemophilus influenzae 54A1100. Description: Murine acute infection (peritonitis) model challenged with Haemophilus influenzae. The assay is classed as in vivo, mouse. The following applies: for Mice Surviving/Total: Q.D. [1 day].
Assay [4] relates to Haemophilus influenzae 54A1100. Description: Gerbil middle ear (otitis media) infection model, ED50, H. influenzae 54A1100. The settings on record: oral QD; gerbil otitis media model. The assay is classed as in vivo.
Assay [5] has as its system Streptococcus pneumoniae 02J1016. Description: Murine lung (pulmonary/pneumonia) infection model challenged with Streptococcus pneumoniae. The assay is classed as in vivo, mouse.
Another assay has as its system H. influenzae 54A1100. Put plainly: MIC determination, H. influenzae 54A1100. The assay is classed as cell-based, Haemophilus influenzae. The following applies: H. influenzae 54A1100. How it is done: as §1, §2
The subject of assay [6] is Streptococcus pyogenes 02C0203. Put plainly: Murine acute infection (peritonitis) model challenged with Streptococcus pyogenes. The assay is classed as in vivo, mouse.
The subject of assay [7] is H. influenzae. Put plainly: Study 95-001 otitis media caused by H. influenzae. The settings on record: single intramuscular dose 50 mg/kg; 9 patients; follow-up. The assay is classed as in vivo, human. How it is done: Specimens for culture and susceptibility testing were obtained from the infected ear by tympanocentesis within 24 h of start of therapy. […] However, the study was evaluated using the breakpoints in the most recent set of guidelines.
To be a bacteriological cure, the MITT subject had to have a positive culture from the middle ear for S. pneumoniae, H influenzae, or M. catarrhalis. Eradication was defined as presumed eradication of pretreatment pathogen(s) based on signs/symptoms or unavailability of culturable material. All evaluable patients had only one of the bacterial species present at baseline. There was no bacteriological response data collected for 95–001. However, the clinical outcome by bacterial pathogen at follow-up (approximately 28 days after first visit) was collected. For patients with S. pneumoniae as the baseline pathogen, all treatment arms yielded 100% clinical cure when the investigators' evaluations that were missing are not included in the analysis. […] The comparator drug, ceftriaxone, had no failures out of 9 patients.

Another assay deals with S. pneumoniae isolates. Description: Susceptibility (MIC) testing of trial S. pneumoniae isolates with PCR of resistance mechanism. The settings on record: for MIC: Streptococcus pneumoniae. The assay is classed as cell-based, Streptococcus pneumoniae. The source says:
Samples of middle ear fluid were split for storage at a central laboratory and cultured locally. All pathogens isolated locally were subcultured and sent to a central laboratory for confirmation and susceptibility testing, performed by Kirby-Bauer disk-diffusion or MIC testing according to NCCLS standards.
Polymerase chain reaction (PCR) determination of resistance mechanisms in all the azithromycin-resistant pneumococci was done.
Cultures were taken for antimicrobial susceptibility testing and bacterial species were identified. Current NCCLS approved breakpoints for MICs and zone sizes were applied to all data irrespective of the breakpoint in use at the time of the study. The isolates from the clinical studies were sent to central laboratories for identification and susceptibility determination. The methods for agar diffusion disk tests are those recommended by NCCLS.
The susceptibility breakpoints for azithromycin were defined as follows: […]

The mark [8] stands for this setting: oral QD, murine peritonitis model.
Setting [9] is: 1.56 mg/kg/day P.O., 2 day regimen.
Setting [10] is: 3.12 mg/kg/day P.O., 1 day regimen.
Setting [11] is: 6.25 mg/kg/day P.O., 2 day regimen.
Where [12] appears, read: 25.0 mg/kg/day P.O., 2 day regimen.
The mark [13] stands for this setting: 50.0 mg/kg/day P.O., 1 day regimen.
[14] abbreviates: oral QD, murine pneumonia model.

≈ marks a conversion by molar mass, not a printed value. Like-named read-outs stand apart in the source and are kept apart here.

Turning to `CC=CC1=C(C(=O)O)N2C(=O)[C@@H](NC(=O)[C@H](N)c3ccc(O)cc3)[C@H]2SC1` [Cefprozil], in the assay with H. influenzae [1], the “success rate less than control (amoxicillin/clavulanic acid); presumptive bacterial/clinical cure outcomes (i.e., clinical success) at 10–16 days post-therapy” value is on record as 17% less than control (amoxicillin/clavulanic.

`CC[C@H]1OC(=O)[C@H](C)[C@@H](O[C@H]2C[C@@](C)(OC)[C@@H](O)[C@H](C)O2)[C@H](C)[C@@H](O[C@@H]2O[C@H](C)C[C@H](N(C)C)[C@H]2O)[C@](C)(OC)C[C@@H](C)C(=O)[C@H](C)[C@@H](O)[C@]1(C)O` [Clarithromycin]: the “ED50 One-Day Therapy” value in assay [2] is 99.8 mg/kg/therapy; in assay [3] (setting [8]), greater than 200 mg/kg/therapy; in [4], greater than 200 mg/kg/therapy; in assay [5] (setting [14]), 270 mg/kg/therapy; in assay [6] (setting [8]), 11.7^1 mg/kg/therapy. Also, the “ED50 Three-Day Therapy” value in [2] is 87.5 mg/kg/therapy; in [3] (setting [8]) it was greater than 200 mg/kg/therapy; in assay [4], greater than 200 mg/kg/therapy; in [5] (setting [14]), 338 mg/kg/therapy; in assay [6] (setting [8]), 3.8 mg/kg/therapy. Besides, the “ED50 Two-Day Therapy” value in assay [2] is listed as 103.0 mg/kg/therapy; in assay [3] (setting [8]), greater than 200 mg/kg/therapy; in assay [4], greater than 200 mg/kg/therapy; in assay [5] (setting [14]), 327 mg/kg/therapy; in [6] (setting [8]), 2.5 mg/kg/therapy. The MIC result is “MIC 0.01-0.03 μg/ml” in the assay on S. pyogenes 02C0203; 8 µg/mL (≈ 10.7 µM) in the assay on H. influenzae 54A1100 (listed as Clanthromycin); 8 µg/mL (≈ 10.7 µM) with H. influenzae 54A1100 (Haemophilus influenzae, read-out: MIC). Further, the “Mice Surviving/Total” value was 0/10 in [3] (3.12 mg/kg/day); 2/10 in assay [3] (50 mg/kg/day); 0/10 in [3] (200 mg/kg/day); 0/10 in assay [3] ([…]); 0/10 in assay [5] (1.04 mg/kg/day P.O., 3 day regimen); 0/10 in [5] (setting [9]). Further, the “Mice Surviving/Total” value in assay [5] (setting [10]) is given as 0/10; in assay [5] (4.2 mg/kg/day P.O., 3 day regimen), 0/10; in assay [5] (setting [11]), 0/10; in [5] (16.7 mg/kg/day P.O., 3 day regimen), 0/10; in [5] (setting [12]), 0/10; in assay [5] (setting [13]), 1/10. In addition, the “Mice Surviving/Total” value is listed as 2/10 in assay [5] (66.7 mg/kg/day P.O., 3 day regimen); 1/10 in assay [5] (100.0 mg/kg/day P.O., 2 day regimen); 4/10 in assay [5] (200.0 mg/kg/day P.O., 1 day regimen); 1/10 in assay [5] ([…] P.O., 1 day regimen); 0/10 in assay [6] (0.20 mg/kg/day P.O., 3 day regimen); 0/10 in [6] (0.39 mg/kg/day P.O., 2 day regimen). Further, the “Mice Surviving/Total” value in assay [6] (0.78 mg/kg/day P.O., 1 day regimen) is on record as 0/10; in assay [6] (0.78 mg/kg/day P.O., 3 day regimen), 5/10; in assay [6] (setting [9]), 8/10; in assay [6] (setting [10]), 4/10; in assay [6] (3.12 mg/kg/day P.O., 3 day regimen), 9/10; in assay [6] (setting [11]), 9/10. The “Mice Surviving/Total” value is reported as 8/10 in [6] (setting [12]); 10/10 in assay [6] (setting [13]); 6/10 in [6] ([…] P.O., 1 day regimen); 10/10 in [6] ([…] P.O., 3 day regimen). For the same compound, the “Oral PD50” value in assay [3] (Dosing Regimen 1 day) was greater than 200 mg/kg/day; in [5] (Dosing Regimen 1 day) it was greater than 200 mg/kg/day; in assay [5] (Dosing Regimen 2 days), greater than 200 mg/kg/day; in assay [5] (Dosing Regimen 3 days) it was greater than 200 mg/kg/day; in assay [6] (Dosing Regimen 1 day), 11.3 (3.1–19.4) mg/kg/day; in [6] (Dosing Regimen 2 days), 2.2 (0.9–3.6) mg/kg/day. The “Oral PD50” value in assay [6] (Dosing Regimen 3 days) is reported as 3.1 (2.6–3.7) mg/kg/day. The same compound came in with a PD50 in assay [3] (one therapeutic dose (one day regimen), s.c.) greater than 200 mg/kg. In addition, the PD50s was greater than 200 mg/kg in assay [5] (all three q.d. regimens (1, 2, 3 days)) and 5 to 25 mg/kg in assay [5] (previous data, BID administration over two days of therapy).

In the case of `CO/N=C(\C(=O)N[C@@H]1C(=O)N2C(C(=O)O)=C(CSc3nc(=O)c(=O)[nH]n3C)CS[C@H]12)c1csc(N)n1` [Ceftriaxone], the failures entry in the assay on H. influenzae [7] is reported as “no failures”.

Regarding `CCC[C@@H]1C[C@@H](C(=O)N[C@@H]([C@H]2O[C@H](SC)[C@H](O)[C@@H](O)[C@H]2O)[C@H](C)Cl)N(C)C1` [clindamycin], the “clindamycin MIC” value with S. pneumoniae isolates (S. pneumoniae strains with erm(B)) was 128 µg/mL. In addition, the MIC in the assay on S. pneumoniae isolates (read-out: clindamycin MIC, S. pneumoniae strains confirmed as mef(A)) was less than 0.06 µg/mL; in the assay on S. pneumoniae isolates (read-out: clindamycin MIC, S. pneumoniae strains with erm(B)), greater than 128 µg/mL.

These data come from patent publication US6987093B2 (priority 2001, dated 2006).
